Laboratory results from patent publication US20060069151A1, “Novel use of lycopene” (priority 2002, published 2006).

Tested on: androgen signalling
Assay: androgen target gene expression in androgen sensitive target organ tissue
Format: in vivo
Settings: after administration; no method, species or dose described

CC(C)=CCC/C(C)=C/C=C/C(C)=C/C=C/C(C)=C/C=C/C=C(C)/C=C/C=C(C)/C=C/C=C(\C)CCC=C(C)C [lycopene]
androgen target gene expression in androgen sensitive target organ tissue, as the endpoint and result of androgen signalling: significantly reduced
